Assays:
[1] = target: T1, human Nav1.5 channels stably expressed in HEK 293 cells (Homo sapiens, UniProt Q14524); test: PatchXpress 7000 automated patch-clamp, sodium current; format: cell-based; conditions: selectivity over Nav1.5
T1 construct: expressed in transfected cells
From the text: (§1) To measure state and use-dependent sodium channel inhibition, test compounds were further characterized in an automated PatchXpress® assay (Molecular Devices). Two voltage-clamp protocols were used. 1) Use-dependent protocol: Cells were held at a membrane potential 20 mV negative to the potential at which ˜50% of the channels are inactivated (V0.5 inact). A train of 30 ms depolarizations to −20 mV was applied to the cells expressing Nav1.7 at a frequency of 10 Hz. […] Data was collected in the absence and presence of drug, and after drug washout. 2) A double-pulse protocol was used to measure inactivated state block. Cells were held at a potential 20 mV negative to V0.5 inact. A 8000 ms pre-pulse 7 mV positive to V0.5 inact was given followed by a hyperpolarizing 2 ms pulse to −120 mV and a 20 ms test pulse to −20 mV. Protocol was applied to cells in the absence, presence of compound and after washout. The temperature of PatchXpress instruments was maintained at 22° C. The following recording solutions were used. Internal solution (mM): 30 CsCl, 5 HEPES, 10 EGTA, 120 CsF, 5 NaF, 2MgCl2, pH=7.3 with CsOH, 324 mosmo. External solution (mM): 120 NMDG, 40 NaCl, 1 KCl, 0.5 MgCl2, 5 HEPES, 2.7 CaCl2, pH=7.5 with NMDG-OH.
(§2) For all electrophysiology experiments, offline analysis was used to correct for current rundown and to determine percent inhibition as a function of drug concentration. IC50 values were determined by fitting to the Hill equation.

[2] = target: T2, human Nav1.7 channels stably expressed in HEK 293 cells (Homo sapiens, UniProt Q15858); test: as above; format: cell-based; conditions: 22° C., read-out: potency for the Nav 1.7 sodium ion channel (as measured by PatchXpress)
T2 construct: expressed in transfected cells
T2 sequence (Q15858 whole entry): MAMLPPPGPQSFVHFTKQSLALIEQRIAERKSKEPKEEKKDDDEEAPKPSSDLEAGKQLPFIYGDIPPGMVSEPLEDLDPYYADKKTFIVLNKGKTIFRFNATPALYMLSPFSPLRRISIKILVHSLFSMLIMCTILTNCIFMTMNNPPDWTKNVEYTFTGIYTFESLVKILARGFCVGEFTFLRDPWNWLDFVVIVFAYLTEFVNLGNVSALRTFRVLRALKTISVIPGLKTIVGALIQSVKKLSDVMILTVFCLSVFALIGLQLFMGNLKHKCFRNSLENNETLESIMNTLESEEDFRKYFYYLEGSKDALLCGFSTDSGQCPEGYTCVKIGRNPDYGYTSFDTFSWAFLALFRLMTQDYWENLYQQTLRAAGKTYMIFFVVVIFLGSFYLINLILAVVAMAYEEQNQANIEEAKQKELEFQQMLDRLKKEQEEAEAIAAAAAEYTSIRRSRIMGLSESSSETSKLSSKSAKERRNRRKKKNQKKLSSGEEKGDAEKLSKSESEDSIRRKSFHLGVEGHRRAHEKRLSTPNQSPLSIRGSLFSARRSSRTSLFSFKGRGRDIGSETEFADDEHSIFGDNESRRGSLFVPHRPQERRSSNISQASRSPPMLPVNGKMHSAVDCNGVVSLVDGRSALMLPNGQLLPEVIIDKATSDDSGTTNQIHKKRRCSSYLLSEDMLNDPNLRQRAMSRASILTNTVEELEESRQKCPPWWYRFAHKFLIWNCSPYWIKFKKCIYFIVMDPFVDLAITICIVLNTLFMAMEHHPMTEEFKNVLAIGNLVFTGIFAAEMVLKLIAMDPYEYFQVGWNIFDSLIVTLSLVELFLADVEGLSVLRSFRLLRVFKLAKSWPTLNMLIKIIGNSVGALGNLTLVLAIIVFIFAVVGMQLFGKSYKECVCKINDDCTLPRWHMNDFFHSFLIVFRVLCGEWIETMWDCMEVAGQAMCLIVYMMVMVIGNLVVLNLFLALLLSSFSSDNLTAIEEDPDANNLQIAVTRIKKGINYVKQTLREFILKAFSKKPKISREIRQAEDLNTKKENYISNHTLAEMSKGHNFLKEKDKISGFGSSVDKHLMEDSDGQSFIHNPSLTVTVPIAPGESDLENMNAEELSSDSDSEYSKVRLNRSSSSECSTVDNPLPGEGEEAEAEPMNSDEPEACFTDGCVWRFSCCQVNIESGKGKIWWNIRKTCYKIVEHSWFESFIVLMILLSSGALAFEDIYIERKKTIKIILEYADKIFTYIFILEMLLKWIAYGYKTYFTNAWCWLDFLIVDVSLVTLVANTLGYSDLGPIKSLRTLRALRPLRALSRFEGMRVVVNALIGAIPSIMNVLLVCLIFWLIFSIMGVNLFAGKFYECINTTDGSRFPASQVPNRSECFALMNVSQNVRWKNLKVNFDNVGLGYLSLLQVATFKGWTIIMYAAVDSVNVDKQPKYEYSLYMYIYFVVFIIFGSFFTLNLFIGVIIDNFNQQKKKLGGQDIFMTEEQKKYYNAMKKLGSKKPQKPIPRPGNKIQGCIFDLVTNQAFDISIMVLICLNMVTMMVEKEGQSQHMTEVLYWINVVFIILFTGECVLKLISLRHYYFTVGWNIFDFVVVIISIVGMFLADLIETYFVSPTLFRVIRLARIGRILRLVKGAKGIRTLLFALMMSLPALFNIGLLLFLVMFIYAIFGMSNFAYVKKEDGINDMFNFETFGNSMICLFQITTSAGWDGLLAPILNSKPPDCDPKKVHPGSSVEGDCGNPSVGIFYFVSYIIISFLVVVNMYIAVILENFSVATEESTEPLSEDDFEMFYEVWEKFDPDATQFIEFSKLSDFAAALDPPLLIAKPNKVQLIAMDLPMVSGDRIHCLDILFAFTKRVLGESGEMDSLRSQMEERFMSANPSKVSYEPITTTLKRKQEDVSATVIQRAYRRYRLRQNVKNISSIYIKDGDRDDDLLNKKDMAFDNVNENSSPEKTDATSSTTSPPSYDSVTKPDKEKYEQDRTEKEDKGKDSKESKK
From the text: as §1, §2

T1 sequence (Q14524 whole entry): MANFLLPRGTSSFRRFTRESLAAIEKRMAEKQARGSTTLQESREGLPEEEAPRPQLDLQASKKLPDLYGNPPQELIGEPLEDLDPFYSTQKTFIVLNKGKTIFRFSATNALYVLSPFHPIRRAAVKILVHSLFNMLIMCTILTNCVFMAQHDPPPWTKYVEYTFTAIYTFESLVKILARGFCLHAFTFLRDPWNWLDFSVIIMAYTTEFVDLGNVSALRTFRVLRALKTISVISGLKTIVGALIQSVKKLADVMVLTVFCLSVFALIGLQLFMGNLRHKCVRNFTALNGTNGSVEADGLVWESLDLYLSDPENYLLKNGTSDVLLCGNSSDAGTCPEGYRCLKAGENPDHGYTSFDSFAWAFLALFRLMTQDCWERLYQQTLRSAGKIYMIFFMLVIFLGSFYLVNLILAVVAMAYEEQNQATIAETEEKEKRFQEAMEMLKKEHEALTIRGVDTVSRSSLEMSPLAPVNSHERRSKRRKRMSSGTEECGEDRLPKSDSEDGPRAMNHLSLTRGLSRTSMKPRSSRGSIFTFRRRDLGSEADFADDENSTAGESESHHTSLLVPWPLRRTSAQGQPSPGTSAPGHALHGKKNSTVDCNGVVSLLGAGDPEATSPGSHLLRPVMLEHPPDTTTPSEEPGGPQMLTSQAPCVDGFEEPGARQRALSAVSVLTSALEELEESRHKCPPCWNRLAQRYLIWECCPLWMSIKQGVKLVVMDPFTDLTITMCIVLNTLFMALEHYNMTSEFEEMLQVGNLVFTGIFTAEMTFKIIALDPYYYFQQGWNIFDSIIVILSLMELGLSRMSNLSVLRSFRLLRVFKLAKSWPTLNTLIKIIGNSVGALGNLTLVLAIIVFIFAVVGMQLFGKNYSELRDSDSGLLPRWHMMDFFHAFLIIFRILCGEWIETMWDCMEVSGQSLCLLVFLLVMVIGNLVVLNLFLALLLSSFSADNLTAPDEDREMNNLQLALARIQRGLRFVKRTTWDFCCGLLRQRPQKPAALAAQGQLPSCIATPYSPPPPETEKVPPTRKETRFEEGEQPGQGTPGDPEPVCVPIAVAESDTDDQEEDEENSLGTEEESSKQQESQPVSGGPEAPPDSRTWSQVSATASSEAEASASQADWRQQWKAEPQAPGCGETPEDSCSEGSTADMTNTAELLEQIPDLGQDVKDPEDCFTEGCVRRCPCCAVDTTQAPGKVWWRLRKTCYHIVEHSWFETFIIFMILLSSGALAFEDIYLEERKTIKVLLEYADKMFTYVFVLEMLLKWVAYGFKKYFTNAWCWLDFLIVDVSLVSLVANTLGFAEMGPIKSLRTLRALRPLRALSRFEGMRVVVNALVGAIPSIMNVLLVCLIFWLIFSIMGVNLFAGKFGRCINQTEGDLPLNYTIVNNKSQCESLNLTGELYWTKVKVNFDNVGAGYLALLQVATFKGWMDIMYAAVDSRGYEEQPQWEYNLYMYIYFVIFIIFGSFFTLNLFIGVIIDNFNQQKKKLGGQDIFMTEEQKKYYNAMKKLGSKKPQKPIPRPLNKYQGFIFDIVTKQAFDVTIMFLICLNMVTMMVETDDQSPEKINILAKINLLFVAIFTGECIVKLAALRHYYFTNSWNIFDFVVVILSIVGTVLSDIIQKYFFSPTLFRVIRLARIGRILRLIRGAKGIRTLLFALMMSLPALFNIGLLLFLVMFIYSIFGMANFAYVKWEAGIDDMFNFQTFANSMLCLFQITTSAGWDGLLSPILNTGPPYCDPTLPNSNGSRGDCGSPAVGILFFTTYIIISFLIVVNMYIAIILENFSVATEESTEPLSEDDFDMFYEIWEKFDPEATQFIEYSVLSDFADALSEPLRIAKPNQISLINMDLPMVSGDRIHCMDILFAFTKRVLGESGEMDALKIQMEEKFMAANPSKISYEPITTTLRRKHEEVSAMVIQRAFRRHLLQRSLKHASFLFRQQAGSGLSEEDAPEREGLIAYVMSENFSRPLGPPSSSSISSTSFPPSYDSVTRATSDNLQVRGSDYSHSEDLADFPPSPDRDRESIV

## NC1CCc2cccc(Cn3c(=O)oc4cc(S(=O)(=O)Nc5ncns5)c(F)cc43)c2C1 (racemic) [Compound 20-4, 3-((7-amino-5,6,7,8-tetrahydronaphthalen-1-yl)methyl)-5-fluoro-2-oxo-N-(1,2,4-thiadiazol-5-yl)-2,3-dihydrobenzo[d]oxazole-6-sulfonamide]
[1]
  ratio of Nav 1.5:Nav 1.7 potency, determined by PatchXpress measurement: 167
[2]
  IC50: 179 nM

## NC1CCc2c(cccc2Cn2c(=O)oc3cc(S(=O)(=O)Nc4ncns4)ccc32)C1 (racemic) [Compound 23-3, (+/−)-3-[(6-amino-5,6,7,8-tetrahydronaphthalen-1-yl)methyl]-2-oxo-N-1,2,4-thiadiazol-5-yl-2,3-dihydro-1,3-benzoxazole-6-sulfonamide]
[1]
  ratio of Nav 1.5:Nav 1.7 potency, determined by PatchXpress measurement: 88
[2]
  IC50: 342 nM

## O=c1oc2cc(S(=O)(=O)Nc3ncns3)c(F)cc2n1Cc1cccc2c1CC(N1CCC(F)(F)C1)CC2 (racemic) [Compound 23-5, (+/−)-3-{[7-(3,3-difluoropyrrolidin-1-yl)-5,6,7,8-tetrahydronaphthalen-1-yl]methyl}-5-fluoro-2-oxo-N-1,2,4-thiadiazol-5-yl-2,3-dihydro-1,3-benzoxazole-6-sulfonamide]
[1]
  ratio of Nav 1.5:Nav 1.7 potency, determined by PatchXpress measurement: 78
[2]
  IC50: 278 nM

## O=c1oc2cc(S(=O)(=O)Nc3ncns3)c(F)cc2n1Cc1cccc2c1CC(NCC(F)(F)F)CC2 (racemic) [Compound 23-7, (+/−)-5-fluoro-2-oxo-N-1,2,4-thiadiazol-5-yl-3-({7-[(2,2,2-trifluoroethyl)amino]-5,6,7,8-tetrahydronaphthalen-1-yl}methyl)-2,3-dihydro-1,3-benzoxazole-6-sulfonamide]
[1]
  ratio of Nav 1.5:Nav 1.7 potency, determined by PatchXpress measurement: 146
[2]
  IC50: 206 nM

## NC1CCc2c(cccc2Cn2c(=O)oc3cc(S(=O)(=O)Nc4ncns4)c(F)cc32)C1 (racemic) [Compound 23-8, (+/−)-3-[(6-amino-5,6,7,8-tetrahydronaphthalen-1-yl)methyl]-5-fluoro-2-oxo-N-1,2,4-thiadiazol-5-yl-2,3-dihydro-1,3-benzoxazole-6-sulfonamide]
[1]
  ratio of Nav 1.5:Nav 1.7 potency, determined by PatchXpress measurement: 161
[2]
  IC50: 186 nM

## NC1Cc2cccc(Cn3c(=O)oc4cc(S(=O)(=O)Nc5ncns5)ccc43)c2C1 (racemic) [Compound 23-9, (+/−)-3-[(2-amino-2,3-dihydro-1H-inden-4-yl)methyl]-2-oxo-N-1,2,4-thiadiazol-5-yl-2,3-dihydro-1,3-benzoxazole-6-sulfonamide]
[1]
  ratio of Nav 1.5:Nav 1.7 potency, determined by PatchXpress measurement: 167
[2]
  IC50: 180 nM

## O=c1oc2cc(S(=O)(=O)Nc3ncns3)c(F)cc2n1Cc1cccc2c1CC(N1CCCC1C(F)(F)F)CC2 (racemic) [Compound 23-11, (+/−)-5-fluoro-2-oxo-N-1,2,4-thiadiazol-5-yl-3-({7-[2-(trifluoromethyl)pyrrolidin-1-yl]-5,6,7,8-tetrahydronaphthalen-1-yl}methyl)-2,3-dihydro-1,3-benzoxazole-6-sulfonamide]
[1]
  ratio of Nav 1.5:Nav 1.7 potency, determined by PatchXpress measurement: 73
[2]
  IC50: 115 nM

## CC(c1cccc2c1CC(N1CC(F)(F)C1)CC2)n1c(=O)oc2cc(S(=O)(=O)Nc3ncns3)c(F)cc21 (racemic) [Compound 23-12, (+/−)-3-{1-[7-(3,3-difluoroazetidin-1-yl)-5,6,7,8-tetrahydronaphthalen-1-yl]ethyl}-5-fluoro-2-oxo-N-1,2,4-thiadiazol-5-yl-2,3-dihydro-1,3-benzoxazole-6-sulfonamide]
[1]
  ratio of Nav 1.5:Nav 1.7 potency, determined by PatchXpress measurement: 46
[2]
  IC50: 109 nM

## O=c1oc2cc(S(=O)(=O)Nc3ncns3)c(F)cc2n1Cc1cccc2c1CC(NCC(F)F)CC2 (racemic) [Compound 23-13, (+/−)-3-({7-[(2,2-difluoroethyl)amino]-5,6,7,8-tetrahydronaphthalen-1-yl}methyl)-5-fluoro-2-oxo-N-1,2,4-thiadiazol-5-yl-2,3-dihydro-1,3-benzoxazole-6-sulfonamide]
[1]
  ratio of Nav 1.5:Nav 1.7 potency, determined by PatchXpress measurement: 121
[2]
  IC50: 84 nM

## CN(C)C1CCc2cccc(Cn3c(=O)oc4cc(S(=O)(=O)Nc5ncns5)c(F)cc43)c2C1 (racemic) [Compound 23-15, (+/−)-3-{[7-(dimethylamino)-5,6,7,8-tetrahydronaphthalen-1-yl]methyl}-5-fluoro-2-oxo-N-1,2,4-thiadiazol-5-yl-2,3-dihydro-1,3-benzoxazole-6-sulfonamide]
[1]
  ratio of Nav 1.5:Nav 1.7 potency, determined by PatchXpress measurement: 207
[2]
  IC50: 72 nM

## O=c1oc2cc(S(=O)(=O)Nc3ncns3)c(F)cc2n1Cc1cccc2c1CC(N1CCOCC1)CC2 (racemic) [Compound 23-16, (+/−)-5-fluoro-3-[(7-morpholin-4-yl-5,6,7,8-tetrahydronaphthalen-1-yl)methyl]-2-oxo-N-1,2,4-thiadiazol-5-yl-2,3-dihydro-1,3-benzoxazole-6-sulfonamide]
[1]
  ratio of Nav 1.5:Nav 1.7 potency, determined by PatchXpress measurement: 431
[2]
  IC50: 70 nM

## NC1Cc2cccc(Cn3c(=O)oc4cc(S(=O)(=O)Nc5ncns5)c(F)cc43)c2C1 (racemic) [Compound 23-17, (+/−)-3-[(2-amino-2,3-dihydro-1H-inden-4-yl)methyl]-5-fluoro-2-oxo-N-1,2,4-thiadiazol-5-yl-2,3-dihydro-1,3-benzoxazole-6-sulfonamide]
[1]
  ratio of Nav 1.5:Nav 1.7 potency, determined by PatchXpress measurement: 321
[2]
  IC50: 50 nM

## CNC1CCc2cccc(Cn3c(=O)oc4cc(S(=O)(=O)Nc5ncns5)ccc43)c2C1 (racemic) [Compound 23-18, (+/−)-3-{[7-(methylamino)-5,6,7,8-tetrahydronaphthalen-1-yl]methyl}-2-oxo-N-1,2,4-thiadiazol-5-yl-2,3-dihydro-1,3-benzoxazole-6-sulfonamide]
[1]
  ratio of Nav 1.5:Nav 1.7 potency, determined by PatchXpress measurement: 642
[2]
  IC50: 47 nM

## O=c1oc2cc(S(=O)(=O)Nc3ncns3)c(F)cc2n1Cc1cccc2c1CC(N1CCC1)CC2 (racemic) [Compound 23-19, (+/−)-3-[(7-azetidin-1-yl-5,6,7,8-tetrahydronaphthalen-1-yl)methyl]-5-fluoro-2-oxo-N-1,2,4-thiadiazol-5-yl-2,3-dihydro-1,3-benzoxazole-6-sulfonamide]
[1]
  ratio of Nav 1.5:Nav 1.7 potency, determined by PatchXpress measurement: 499
[2]
  IC50: 32 nM

## O=c1oc2cc(S(=O)(=O)Nc3ncns3)c(F)cc2n1Cc1cccc2c1CC(N1CCCC1)CC2 (racemic) [Compound 23-20, (+/−)-5-fluoro-2-oxo-3-[(7-pyrrolidin-1-yl-5,6,7,8-tetrahydronaphthalen-1-yl)methyl]-N-1,2,4-thiadiazol-5-yl-2,3-dihydro-1,3-benzoxazole-6-sulfonamide]
[1]
  ratio of Nav 1.5:Nav 1.7 potency, determined by PatchXpress measurement: 802
[2]
  IC50: 30 nM

## O=c1oc2cc(S(=O)(=O)Nc3ncns3)c(F)cc2n1Cc1cccc2c1CC(NCCF)CC2 (racemic) [Compound 23-21, (+/−)-5-fluoro-3-({7-[(2-fluoroethyl)amino]-5,6,7,8-tetrahydronaphthalen-1-yl}methyl)-2-oxo-N-1,2.4-thiadiazol-5-yl-2,3-dihydro-1,3-benzoxazole-6-sulfonamide]
[1]
  ratio of Nav 1.5:Nav 1.7 potency, determined by PatchXpress measurement: 920
[2]
  IC50: 28 nM

## O=c1oc2cc(S(=O)(=O)Nc3ncns3)c(F)cc2n1Cc1cccc2c1CC(NCCO)CC2 (racemic) [Compound 23-22, (+/−)-5-fluoro-3-({7-[(2-hydroxyethyl)amino]-5,6,7,8-tetrahydronaphthalen-1-yl}methyl)-2-oxo-N-1,2,4-thiadiazol-5-yl-2,3-dihydro-1,3-benzoxazole-6-sulfonamide]
[1]
  ratio of Nav 1.5:Nav 1.7 potency, determined by PatchXpress measurement: 221
[2]
  IC50: 26 nM

## O=c1oc2cc(S(=O)(=O)Nc3ncns3)c(F)cc2n1Cc1cccc2c1CC(NCc1ccccc1)CC2 (racemic) [Compound 23-23, (+/−)-3-{[7-(benzylamino)-5,6,7,8-tetrahydronaphthalen-1-yl]methyl}-5-fluoro-2-oxo-N-1,2,4-thiadiazol-5-yl-2,3-dihydro-1,3-benzoxazole-6-sulfonamide]
[1]
  ratio of Nav 1.5:Nav 1.7 potency, determined by PatchXpress measurement: 502
[2]
  IC50: 24 nM

## CC(c1cccc2c1CC(N)CC2)n1c(=O)oc2cc(S(=O)(=O)Nc3ncns3)c(F)cc21 (racemic) [Compound 23-24, (R,R and S,R) or (R,S and S,S)-3-[1-(7-amino-5,6,7,8-tetrahydronaphthalen-1-yl)ethyl]-5-fluoro-2-oxo-N-1,2,4-thiadiazol-5-yl-2,3-dihydro-1,3-benzoxazole-6-sutfonamide]
[1]
  ratio of Nav 1.5:Nav 1.7 potency, determined by PatchXpress measurement: 1119
[2]
  IC50: 15 nM

## CNC1CCc2cccc(Cn3c(=O)oc4cc(S(=O)(=O)Nc5ncns5)c(F)cc43)c2C1 (racemic) [Compound 23-26, (+/−)-5-fluoro-3-{[7-(methylamino)-5,6,7,8-tetrahydronaphthalen-1-yl]methyl}-2-oxo-N-1,2,4-thiadiazol-5-yl-2,3-dihydro-1,3-benzoxazole-6-sulfonamide]
[1]
  ratio of Nav 1.5:Nav 1.7 potency, determined by PatchXpress measurement: 2451
[2]
  IC50: 12 nM

— patent publication US9273040B2 (Merck Sharp & Dohme Corp., priority 2011, dated 2016)
